Test results published in US11566057B2, “Long-acting co-agonists of the glucagon and GLP-1 receptors” (Merck Sharp & Dohme Corp., priority 2017, dated 2023).
Like-named read-outs stand apart in the source and are kept apart here. Numbered stars: 1 amine (or outer) side, 2 acyl side, 3 side chain; on linkers, the order of the positions; unused ones are H or OH. Square brackets hold non-standard residues; d marks the D form. Side chains are listed from the residue outwards. Peptide text beside a SMILES is read from it. * marks the point of attachment. Phe(4-CH2NH2) = NCc1ccc(C[C@H](N)C(=O)O)cc1; C18 diacid = O=C(O)CCCCCCCCCCCCCCCCC(=O)*; C16 diacid = O=C(O)CCCCCCCCCCCCCCC(=O)*; γGlu = O=C(O)[C@H](CCC(=O)[*:2])N[*:1]; Met(O2) = CS(=O)(=O)CC[C@H](N)C(=O)O; αMeD = C[C@](N)(CC(=O)O)C(=O)O; AEEA = NCCOCCOCC(=O)O; Aib = CC(C)(N)C(=O)O

Experiments:
human GCGR = biological target: T1, human GCGR (Homo sapiens, UniProt P47871); test: cAMP activity assay at the Glucagon receptor (GCGR); assay type: cell-based; settings: for hGCGR/hGLP1R (hTone): ratio of GCGR EC50 to GLP1R EC50
T1 construct: expressed in transfected cells; growth medium holds Blasticidin and Hygromycin
In short: (§1)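 Peptides serially diluted from DMSO (10 points) and added to frozen-stock cells bearing human GLP1R (10,000 cells/well) or GCGR (30,000 cells/well), 1 h at RT, dark. EC50 by four-parameter logistic fit of HitHunter cAMPXS luminescence, read following overnight RT incubation.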

human GLP1R = biological target: T2, human GLP1R (Homo sapiens, UniProt P43220); test: cAMP activity assay at the GLP-1 receptor (GLP1R); assay type: cell-based; settings: summary statement: EC50 at each of the glucagon and GLP-1 receptors; read-out: EC50 at the GLP-1 receptor
T2 construct: expressed in transfected cells; growth medium holds Blasticidin and Hygromycin
In short: as §1

[1] = summary statement: EC50 at each of the glucagon and GLP-1 receptors, read-out: EC50 at the glucagon receptor
[2] = cells expressing human GCGR, cAMP production, buffer with or without 20% human serum (not stated which), read-out: GCGR EC50 human

T2 sequence (P43220 24-463): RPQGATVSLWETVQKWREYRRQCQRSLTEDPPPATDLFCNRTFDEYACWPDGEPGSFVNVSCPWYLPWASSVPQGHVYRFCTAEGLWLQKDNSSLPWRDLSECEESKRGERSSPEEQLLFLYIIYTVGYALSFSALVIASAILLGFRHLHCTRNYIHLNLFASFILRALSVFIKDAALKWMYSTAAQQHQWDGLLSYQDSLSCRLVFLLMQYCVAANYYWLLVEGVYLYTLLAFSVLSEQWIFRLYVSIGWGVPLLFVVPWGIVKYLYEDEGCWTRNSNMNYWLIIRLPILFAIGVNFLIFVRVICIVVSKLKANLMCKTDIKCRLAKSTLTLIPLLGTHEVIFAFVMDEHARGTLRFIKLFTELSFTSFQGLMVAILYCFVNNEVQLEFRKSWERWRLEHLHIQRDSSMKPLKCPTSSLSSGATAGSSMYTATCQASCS
T1 sequence (P47871 26-477): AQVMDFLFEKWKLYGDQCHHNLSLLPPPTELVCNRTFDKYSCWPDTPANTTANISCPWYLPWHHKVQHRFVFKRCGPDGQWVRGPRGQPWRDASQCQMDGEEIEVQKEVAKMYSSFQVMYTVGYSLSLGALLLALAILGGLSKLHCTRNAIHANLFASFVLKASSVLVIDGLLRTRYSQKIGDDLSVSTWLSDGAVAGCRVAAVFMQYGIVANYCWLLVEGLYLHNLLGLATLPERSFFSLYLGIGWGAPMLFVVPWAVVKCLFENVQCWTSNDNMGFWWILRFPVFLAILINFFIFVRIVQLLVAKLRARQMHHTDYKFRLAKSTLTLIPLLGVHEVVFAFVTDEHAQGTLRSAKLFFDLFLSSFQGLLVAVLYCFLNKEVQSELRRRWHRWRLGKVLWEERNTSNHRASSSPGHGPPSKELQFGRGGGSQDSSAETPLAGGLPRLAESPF

Row | SMILES | hGCGR/hGLP1R (hTone) (human GCGR) | EC50 (human GCGR; [1]) | EC50 (human GLP1R) | EC50 (human GCGR; [2])
1 | CC(C)C[C@H](NC(=O)[C@H](Cc1ccc(O)cc1)NC(=O)[C@H](CCCCN)NC(=O)[C@H](CO)NC(=O)[C@H](Cc1ccc(O)cc1)NC(=O)[C@H](CC(=O)O)NC(=O)[C@H](CO)NC(=O)[C@@H](NC(=O)[C@H](Cc1ccccc1)NC(=O)[C@@H](NC(=O)CNC(=O)[C@H](CCC(N)=O)NC(=O)C(C)(C)NC(=O)[C@@H](N)Cc1c[nH]cn1)[C@@H](C)O)[C@@H](C)O)C(=O)N[C@@H](CC(=O)O)C(=O)N[C@@H](C)C(=O)N[C@@H](CCCNC(=N)N)C(=O)N[C@@H](C)C(=O)N[C@@H](C)C(=O)N[C@@H](CCC(N)=O)C(=O)N[C@@H](Cc1ccc(CNC(=O)COCCOCCNC(=O)COCCOCCNC(=O)CC[C@H](NC(=O)CCCCCCCCCCCCCCCCC(=O)O)C(=O)O)cc1)C(=O)N[C@@H](Cc1ccccc1)C(=O)N[C@H](C(=O)N[C@@H](CCC(N)=O)C(=O)N[C@@H](Cc1c[nH]c2ccccc12)C(=O)N[C@@H](CC(C)C)C(=O)N[C@@H](CCS(C)(=O)=O)C(=O)N[C@@](C)(CC(=O)O)C(=O)N[C@H](C(N)=O)[C@@H](C)O)C(C)C [TP634] (H-H[Aib]QGTFTSDYSKYLDARAAQ[Phe(4-CH2NH2)]([AEEA-AEEA-γGlu-C18 diacid])FVQWL[Met(O2)][αMeD]T-NH2) | 1.6 | < 5 nM | < 5 nM | –
2 | CC(C)C[C@H](NC(=O)[C@H](Cc1ccc(O)cc1)NC(=O)[C@H](CCCCN)NC(=O)[C@H](CO)NC(=O)[C@H](Cc1ccc(O)cc1)NC(=O)[C@H](CC(=O)O)NC(=O)[C@H](CO)NC(=O)[C@@H](NC(=O)[C@H](Cc1ccccc1)NC(=O)[C@@H](NC(=O)CNC(=O)[C@H](CCC(N)=O)NC(=O)C(C)(C)NC(=O)[C@@H](N)Cc1c[nH]cn1)[C@@H](C)O)[C@@H](C)O)C(=O)N[C@@H](CC(=O)O)C(=O)N[C@@H](C)C(=O)N[C@@H](CCCNC(=N)N)C(=O)N[C@@H](C)C(=O)N[C@@H](C)C(=O)N[C@@H](CCC(N)=O)C(=O)N[C@@H](CCCCNC(=O)COCCOCCNC(=O)COCCOCCNC(=O)CC[C@H](NC(=O)CCCCCCCCCCCCCCCCC(=O)O)C(=O)O)C(=O)N[C@@H](Cc1ccccc1)C(=O)N[C@H](C(=O)N[C@@H](CCC(N)=O)C(=O)N[C@@H](Cc1c[nH]c2ccccc12)C(=O)N[C@@H](CC(C)C)C(=O)N[C@@H](CCS(C)(=O)=O)C(=O)N[C@@](C)(CC(=O)O)C(=O)N[C@H](C(N)=O)[C@@H](C)O)C(C)C [TP681] (H-H[Aib]QGTFTSDYSKYLDARAAQK([AEEA-AEEA-γGlu-C18 diacid])FVQWL[Met(O2)][αMeD]T-NH2; N-terminus assumed) | 1.8 | < 5 nM | < 5 nM | 0.27 nM
3 | CC(C)C[C@H](NC(=O)[C@H](Cc1ccc(O)cc1)NC(=O)[C@H](CCCCN)NC(=O)[C@H](CO)NC(=O)[C@H](Cc1ccc(O)cc1)NC(=O)[C@H](CC(=O)O)NC(=O)[C@H](CO)NC(=O)[C@@H](NC(=O)[C@H](Cc1ccccc1)NC(=O)[C@@H](NC(=O)CNC(=O)[C@H](CCC(N)=O)NC(=O)C(C)(C)NC(=O)[C@@H](N)Cc1c[nH]cn1)[C@@H](C)O)[C@@H](C)O)C(=O)N[C@@H](CC(=O)O)C(=O)N[C@@H](C)C(=O)N[C@@H](CCCNC(=N)N)C(=O)N[C@@H](C)C(=O)N[C@@H](C)C(=O)N[C@@H](CCCCNC(=O)COCCOCCNC(=O)COCCOCCNC(=O)CC[C@H](NC(=O)CCCCCCCCCCCCCCC(=O)O)C(=O)O)C(=O)N[C@@H](CCC(=O)O)C(=O)N[C@@H](Cc1ccccc1)C(=O)N[C@H](C(=O)N[C@@H](CCC(N)=O)C(=O)N[C@@H](Cc1c[nH]c2ccccc12)C(=O)N[C@@H](CC(C)C)C(=O)N[C@@H](CCS(C)(=O)=O)C(=O)N[C@@H](CC(=O)O)C(=O)N[C@H](C(N)=O)[C@@H](C)O)C(C)C [TP812] (H-H[Aib]QGTFTSDYSKYLDARAAK([AEEA-AEEA-γGlu-C16 diacid])EFVQWL[Met(O2)]DT-NH2) | 2.3 | < 5 nM | < 5 nM | 0.2 nM
